In data set [1] the test system is GABA level. Briefly: Estimation of brain GABA level. Type of data set: in vivo, mice. The note with it: 30 mg/kg p.o., 2 h after administration, compared to pentylenetetrazole-treated group. The protocol: Brain tissue homogenates were prepared by isolating the brain (tissue) from the mice. […] Mice’s brains (tissue) were quickly removed and weighed, and the whole brain samples were washed twice with ice-cold saline solution before being deposited in glass vials, labeled, and stored in a deep freeze (−30°C) until further use. Brain tissue samples were homogenized with a glass handheld homogenizer (PTFE coated). Tissue homogenates (10% w/v) were prepared in cold 0.1 M phosphate buffer (pH adjusted to 7.4) using a homogenizer. To test biological parameters, the supernatant from homogenates was centrifuged at 12,000 rpm for 20 min at 4°C.
The supernatant was put on silica gel 60 F254 aluminum sheets (10 cm × 10 cm) as the stationary phase, with the mobile phase consisting of water-saturated phenol. Prior to chromatography, TLC plates were prewashed with methanol and activated in an oven at 50°C for 5 min. The 0.1 mL supernatant solutions were applied in the form of bands on TLC plates. At room temperature, ascending development was carried out in a glass chamber saturated with the mobile phase for 30 min until a length of 80 mm was reached. The TLC plates that had been created were air-dried and treated with ninhydrin. […] The method’s specificity was determined by obtaining standard GABA samples and comparing their Rf values. […]

Data set [2] concerns mice. Briefly: Rotarod neurotoxicity screening. The note with it: for Neurotoxicity dose (mg/kg) 0.5 h / Neurotoxicity dose (mg/kg) 4 h: rotarod, oral doses 30, 100, 300 mg/kg. The format is in vivo, male Swiss albino mice. The protocol:
The rotarod test, as described in the literature, was used to evaluate neurotoxicity (NT) in mice. In brief, six mice (one group) were trained to balance on a spinning rod (3 cm diameter and 6 rpm speed) to familiarize with the rotarod apparatus (Orchid Scientific, India). Each mouse underwent three trials to remain on the rotating rod for over 1 minute, with the experiment’s cutoff time (180 s) remaining constant. Different pre-oral (p.o.) doses of test and standard substances were administered to the trained animals.

The subject of data set [3] is total antioxidant capacity (TAC). Description: Total antioxidant capacity (FRAP) in brain tissue of PTZ-treated mice. The format is in vivo. The note with it: compared to pentylenetetrazole-treated group, n = 6. Here is the method: (§1) Brain tissue homogenates were prepared by isolating the brain (tissue) from the mice. Animals were euthanized under anesthesia by ketamine (80 mg/kg) and xylazine (5 mg/kg) after 8 h of inducing test and standard compounds. Mice’s brains (tissue) were quickly removed and weighed, and the whole brain samples were washed twice with ice-cold saline solution before being deposited in glass vials, labeled, and stored in a deep freeze (−30°C) until further use. Brain tissue samples were homogenized with a glass handheld homogenizer (PTFE coated). Tissue homogenates (10% w/v) were prepared in cold 0.1 M phosphate buffer (pH adjusted to 7.4) using a homogenizer. To test biological parameters, the supernatant from homogenates was centrifuged at 12,000 rpm for 20 min at 4°C.
Total antioxidant capacity (TAC) was measured by mixing 200 μL of tissue samples with 3 mL of ferric-reducing antioxidant power (FRAP) reagent in a vortex. After incubating samples and blank tubes in a water bath for 30 min at 37°C, the absorbance of the samples was measured at 593 nm. For the standard curve, a stock solution of FeSO4.7H2O in distilled water was produced. Stock solution concentrations were 200, 400, 800, 1200, and 1600 μM. The curve results were given as mM of ferrous sulfate equivalent Fe2+/L ([Sun et al., 1988]).

Data set [4] concerns PTZ-induced seizures. Description: Subcutaneous pentylenetetrazole (sc-PTZ) test.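 On % protection Sc-PTZ 0.5 h: percent reduction of the test group versus the control group.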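 On % protection Sc-PTZ 4 h: percent reduction of the test group versus the control group.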 The conditions noted are these: for Minimum active dose (mg/kg) Sc-PTZ 0.5 h / Minimum active dose (mg/kg) Sc-PTZ 4 h: oral, lowest dose active in half or more of the mice, n = 6. Type of data set: in vivo, male Swiss albino mice.
The target of data set [5] is T1, human carbonic anhydrase II (Homo sapiens, UniProt P00918).
T1 construct: purchased Sino Biological Inc, Beijing, China
Briefly: Human carbonic anhydrase II colorimetric (p-nitrophenyl acetate) inhibition assay. The note with it: mean ± SEM, three independent experiments in triplicate; read-out: CA II (IC50). The format is biochemical. The protocol:
(§2) In brief, the reaction mixture contained 60 μL of 50 mM Tris-sulfate buffer (pH 7.6, containing 0.1 mM ZnCl2),10 μL (0.5 mM) of the test compound in 1% DMSO, and 10 μL of human carbonic anhydrase II and IX (Sino Biological Inc, Beijing, China). All the ingredients were mixed well and pre-incubated at 25°C for 10 min. Substrate p-nitrophenyl acetate was prepared as a 6 mM stock solution using 5% of acetonitrile in buffer and was used fresh. […] The total assay volume was adjusted to 100 μL and further incubated at 37°C for 30 min. Furthermore, all the ingredients were mixed properly, and absorbance was measured. […] The results reported are the mean of triplicate experiments (±SEM) and expressed IC50 values, which were calculated.

The test system of data set [6] is glutathione (GSH). Briefly: Reduced glutathione level in brain of PTZ-treated mice. Type of data set: in vivo. The conditions noted are these: compared to pentylenetetrazole-treated group, n = 6. The protocol: as §1
The quantity of glutathione (GSH) in the brain was determined using the Sedlak and Lindsay method ([Pant et al., 2023]). In brief, brain tissue was deproteinized with an equal amount of 10% TCA and left at 4°C for 2 h. The contents were centrifuged for 15 min at 1200 rpm. The supernatant was mixed with 2 mL of 0.4 M Tris buffer (pH 8.9) containing 0.02 M EDTA (pH 8.9), and then 0.01 M DTNB was added. Finally, the mixture was diluted with 0.5 mL of distilled water to make a total volume of 3 mL, and absorbance was measured using a spectrophotometer at 412 nm, with results expressed as mg GSH/gm tissue.

In data set [7] the test system is induced seizures. Briefly: Anticonvulsant screening (MES and sc-PTZ), outcome recovery/death.
Description: The test compounds and the standard drugs were dissolved in a 0.9% NaCl solution.
After half an hour of p.o. administration of the standard and the tested compounds, an electro-convulsometer (Outus, Ambala Cantt, India) delivered an electrical stimulus of sufficient intensity (25 mA, 500 V, 50 Hz, 0.2 s) via auricular electrodes to induce maximal seizures (Figure 1). To avoid the animal’s death, a drop of 0.9% saline was injected into the eye before the insertion of the electrodes. The tonic hind limb extension (i.e., the hind limbs of the animals outstretched 180° to the plane of the body axis) served as the basic principle for the occurrence of seizure activity. Abolition of the hind limb tonic extensor (HLTE) component of the seizure is defined as protection.
In data set [8] the test system is nitric oxide (NO). Description: Nitrite/NO level (Greiss reagent) in brain homogenate of PTZ-treated mice. The conditions noted are these: brain supernatant, compared to pentylenetetrazole-treated group, n = 6. The format is in vivo. Here is the method: as §1
Greiss reagent, a solution of 0.5% sulfonamide, 2.5% phosphoric acid, and 0.05% naphthyl ethylenediamine, was used to measure nitric oxide (NO) in TSH. Greiss reagent and TSH absorbance were measured at 540 nm, and the sodium nitrite standard curve was used to calculate the quantity of nitrite ([Wills, 1996]; [Green et al., 1982]).

Data set [9] concerns MES-induced seizures. Description: Maximal electroshock-induced seizure (MES) test.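 On % protection MES 0.5 h: percent reduction of the test group versus the control group.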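 On % protection MES 4 h: percent reduction of the test group versus the control group.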 The note with it: for Minimum active dose (mg/kg) MES 0.5 h / Minimum active dose (mg/kg) MES 4 h: oral, lowest dose active in half or more of the mice, n = 6. The format is in vivo, male Swiss albino mice.
Data set [10] has as its target T2, human carbonic anhydrase IX (Homo sapiens, UniProt Q16790).
T2 construct: purchased Sino Biological Inc, Beijing, China
Description: Human carbonic anhydrase IX colorimetric (p-nitrophenyl acetate) inhibition assay. The format is biochemical. The note with it: mean ± SEM, three independent experiments in triplicate; read-out: CA IX (IC50). Here is the method:
as §2

For `CCN(CC)CCOc1cc(C(=O)Nc2nncs2)ccc1OC` [Compound 7d, 4-Methoxy-3-(2-(diethylamino)ethoxy)-N-(1,3,4-thiadiazol-2-yl)benzamide], in [1], the “GABA level in the brain” value is listed as “significant increase in GABA levels”. Besides, the “Neurotoxicity (rotarod test), result in words” value in [2] (at the highest dose (300 mg/kg)) is “without any sign of neurotoxicity”. Moreover, in data set [2], the “Neurotoxicity dose (mg/kg) 0.5 h” value is “- (The indication - (dash) denotes a lack of action at the maximum dose supplied (300 mg/kg))”. Also, the “Neurotoxicity dose (mg/kg) 4 h” value in data set [2] was “- (The indication - (dash) denotes a lack of action at the maximum dose supplied (300 mg/kg))”. Also, the “TAC level (FRAP)” value in data set [3] was “significant increase in TAC levels”. In addition, the figures for the “% protection Sc-PTZ 0.5 h” value in data set [4] (30 mg/kg oral), in data set [4] (100 mg/kg oral) and in [4] (300 mg/kg oral) were 42.43%, 53.27% and 61.46%, respectively. The “% protection Sc-PTZ 4 h” value is 62.85% in data set [4] (100 mg/kg oral) and 75.18% in [4] (300 mg/kg oral). Further, the “Minimum active dose (mg/kg) Sc-PTZ 0.5 h” value in data set [4] was determined as 30 mg/kg. The “Minimum active dose (mg/kg) Sc-PTZ 4 h” value in [4] came out at 100 mg/kg. The IC50 in data set [5] amounted to 480 ± 40 nM; in data set [10] it was 280 ± 30 nM. The GSH level entry in data set [6] is “significant increase in GSH levels”. Further, the Recovery/death entry in data set [7] (30 mg/kg oral), in [7] (100 mg/kg oral) and in data set [7] (300 mg/kg oral) was “Recovery” in each case. Moreover, the “NO (nitrite) level” value in data set [8] was “significantly reduced NO levels”. Also, the “% protection MES 0.5 h” value in data set [9] (30 mg/kg oral) was 30.76%; in data set [9] (100 mg/kg oral), 41.53%; in data set [9] (300 mg/kg oral), 61.53%. The entries for the “% protection MES 4 h” value in data set [9] (30 mg/kg oral), in data set [9] (100 mg/kg oral) and in [9] (300 mg/kg oral) were 40%, 63.07% and 76.92%, respectively. The “Minimum active dose (mg/kg) MES 0.5 h” value in [9] was 30 mg/kg. The “Minimum active dose (mg/kg) MES 4 h” value in [9] is recorded as 30 mg/kg.

Turning to `COc1ccc(C(=O)Nc2nncs2)cc1OCCN(C)C` [Compound 7e, 4-Methoxy-3-(2-(dimethylamino)ethoxy)-N-(1,3,4-thiadiazol-2-yl)benzamide], in data set [2], the “Neurotoxicity dose (mg/kg) 0.5 h” value is recorded as “- (The indication - (dash) denotes a lack of action at the maximum dose supplied (300 mg/kg))”. The “Neurotoxicity dose (mg/kg) 4 h” value in data set [2] is “- (The indication - (dash) denotes a lack of action at the maximum dose supplied (300 mg/kg))”. In addition, the “% protection Sc-PTZ 0.5 h” value in [4] (30 mg/kg oral) amounted to 34.26%; in data set [4] (100 mg/kg oral) it was 43.07%; in data set [4] (300 mg/kg oral) it was 60%. Moreover, the entries for the “% protection Sc-PTZ 4 h” value in data set [4] (100 mg/kg oral) and in data set [4] (300 mg/kg oral) were 61.04% and 67.81%, respectively. Also, the “Minimum active dose (mg/kg) Sc-PTZ 0.5 h” value in [4] stood at 30 mg/kg. Besides, the “Minimum active dose (mg/kg) Sc-PTZ 4 h” value in data set [4] came to 100 mg/kg. For the same molecule, the IC50 in [5] came to 530 ± 30 nM; in data set [10] it was 610 ± 20 nM. In addition, the Recovery/death entry in [7] (30 mg/kg oral), in [7] (100 mg/kg oral) and in data set [7] (300 mg/kg oral) was “Recovery” in each case. Further, the “% protection MES 0.5 h” value in data set [9] (30 mg/kg oral) is 36.92%; in [9] (100 mg/kg oral), 43.07%; in data set [9] (300 mg/kg oral), 60%. In addition, the “% protection MES 4 h” value in data set [9] (100 mg/kg oral) is given as 58.46%; in [9] (300 mg/kg oral) it was 72.30%. Also, the “Minimum active dose (mg/kg) MES 0.5 h” value in data set [9] is 30 mg/kg. The “Minimum active dose (mg/kg) MES 4 h” value in [9] was determined as 100 mg/kg.

For `CN(C)CCOc1cccc(C(=O)Nc2nncs2)c1` [Compound 6e, 3-(2-(dimethylamino)ethoxy)-N-(1,3,4-thiadiazol-2-yl)benzamide], the “Neurotoxicity dose (mg/kg) 0.5 h” value in data set [2] was “- (The indication - (dash) denotes a lack of action at the maximum dose supplied (300 mg/kg))”. Moreover, the “Neurotoxicity dose (mg/kg) 4 h” value in data set [2] was “- (The indication - (dash) denotes a lack of action at the maximum dose supplied (300 mg/kg))”. In addition, the “% protection Sc-PTZ 0.5 h” value in data set [4] (30 mg/kg oral) came to 39.02%; in [4] (100 mg/kg oral), 32.39%; in data set [4] (300 mg/kg oral), 46.55%. Besides, the “% protection Sc-PTZ 4 h” value in data set [4] (100 mg/kg oral) is reported as 63.58%; in [4] (300 mg/kg oral), 74.2%. The “Minimum active dose (mg/kg) Sc-PTZ 0.5 h” value in data set [4] came to 30 mg/kg. The “Minimum active dose (mg/kg) Sc-PTZ 4 h” value in data set [4] was 100 mg/kg. Further, the IC50 in data set [5] is 230 ± 20 nM; in [10] it was 210 ± 40 nM. In addition, the Recovery/death result in [7] (30 mg/kg oral), in data set [7] (100 mg/kg oral) and in [7] (300 mg/kg oral) was “Recovery” in each case. Also, the “% protection MES 0.5 h” value came out at 38.46% in data set [9] (30 mg/kg oral), 32.3% in data set [9] (100 mg/kg oral) and 46.15% in data set [9] (300 mg/kg oral). The “% protection MES 4 h” value in [9] (100 mg/kg oral) is given as 55.38%; in data set [9] (300 mg/kg oral), 73.83%. In [9], the “Minimum active dose (mg/kg) MES 0.5 h” value is given as 30 mg/kg. Moreover, in data set [9], the “Minimum active dose (mg/kg) MES 4 h” value is given as 100 mg/kg.

These data come from PMC11861159, “Design, synthesis, and in vitro, in vivo, and in silico evaluation of novel substituted 1,3,4-thiadiazole derivatives as anticonvulsant agents” (Frontiers in Chemistry, 2025).
